From PubChem BioAssay AID1963830 (Molecular Pharmacology Branch, DTP, NCI, 2024)

System: 922993-354-T-J3-PDC complex spheroid viability
Experiment: Anticancer human tumor 922993-354-T-J3-PDC patient-derived endometrial carcinoma cell line growth inhibition [POLQ]
Details: for IC50: curve of first compound; for viability, T/C: stronger effect = lower value
Method: Multicellular complex tumor spheroid response to Polymerase (POL) inhibitors (novobiocin, ART-558, RP6685) in combination with a variety of drugs and investigational agents in selected tumor cell lines
The POL inhibitors (novobiocin, ART-558, and RP6685) were evaluated both individually and in combination with standard of care and investigational anticancer small molecules within a complex spheroid model of solid tumors. . Complex spheroids include a stromal component modeled by human endothelial cells (HUVEC) and fibroblasts modeled by human mesenchymal stem cells (MSCs). The concentration ranges selected for each drug and investigational agent were based upon clinically achievable concentrations if the clinical Cmax of the agent was known.
Compounds. The drugs and investigational agents: novobiocin (NSC847541), ART-558 (NSC835418), RP-6685 (NSC848927), peposertib (NSC802822), ceralasertib (NSC780249), elimusertib (NSC800525), camonsertib (NSC841442), AZD-1390 (NSC803789), olaparib (NSC753686), talazoparib (NSC767125), rucaparib (NSC756644), sotorasib (NSC818433), MRTX-1133 (NSC836407), SN-38 (NSC673596), topotecan (NSC609699), epotoside (NSC141540), doxorubicin (NSC123127), gemcitabine (NSC613327), 5-fluorouracil (NSC19893), paclitaxel (NSC125973), vemurafenib (NSC761431), MSA-2 (NSC828583), SN-011 (NSC837082), adavosertib (NSC754352), prexasertib (NSC758257), carboplatin (NSC241240) and oxaliplatin (NSC266046), were obtained from the National Cancer Institute (NCI) Developmental Therapeutics Program Chemical Repository (21). The FDA-approved anticancer drug set is available from the Developmental Therapeutics Program at https://dtp.cancer.gov/organization/dscb/obtaining/. […] The stock solutions were prepared in dimethyl sulfoxide (DMSO, Sigma-Aldrich, St. Louis, MO, cat. D2650), except for the platinum compounds which were prepared in saline (Quality Biological, Gaithersburg, MD, cat. 114-055-101), at 800-fold the tested concentration and stored at -70 degrees C prior to their use. All drugs and investigational agents were tested over a range starting from a high concentration at or near the clinical Cmax and decreasing in half-log increments. If the clinical Cmax for an agent had not been determined, the highest concentration tested was 10 microM, except for SN-38, which was tested at a high concentration of 1 microM.
Cell Culture. All cells were maintained in an incubator at 37 degrees C and 5% CO2 with 95% humidity. The PDC lines were cultured according to standard operating procedures established by the NCI PDMR (https://pdmr.cancer.gov). Table 3 of the manuscript, lists the cell lines along with the number of the three cell types plated to form the mct-spheroids and media for tumor cell growth. After thawing, all PDC lines, except 997537-175-T-J1-PDC and 415267-285-R-J2-PDC, were cultured in Matrigel-coated flasks prepared with a working solution of 1X Ham's F-12 nutrient mix, without supplementation (Thermo Fisher Scientific, cat. 11765054), 100 U/mL penicillin-streptomycin (Thermo Fisher Scientific, cat. 15140122), and 2.5% Matrigel (Corning Inc., Corning, NY, cat. 354248) for the first three passages. The two PDC lines 997537-175-T-J1-PDC and 415267-285-R-J2-PDC were cultured on uncoated flasks. The 857933-349-R-J2-PDC line was cultured in 6C/Colon 1B media containing advanced DMEM/F-12 (Thermo Fisher Scientific, cat. 12634028), 10 mM HEPES (Thermo Fisher Scientific, cat. 15630080), 1X GlutaMAX supplement (Thermo Fisher Scientific, cat. 35050061), 0.1 mg/mL primocin (InvivoGen, San Diego, CA, cat. ant-pm-2), 10% defined fetal bovine serum, heat inactivated (HyClone Laboratories Inc., Logan, UT, cat. SH30070.03HI), 50% L-WRN conditioned media (ATCC, cat. CRL-3276), 1.25 mM N-Acetyl-L-cysteine (Sigma-Aldrich, cat. A9165), 10 mM nicotinamide (Sigma-Aldrich, cat. N0636), 1X B-27 supplement (Thermo Fisher Scientific, cat. 17504044), 1X N-2 supplement (Thermo Fisher Scientific, cat. […]

[1] = second compound 0.0316 µM, first compound 0.0316 µM
[2] = second compound 0.0316 µM, first compound 0.1 µM
[3] = second compound 0.0316 µM, first compound 0.316 µM
[4] = second compound 0.0316 µM, first compound 1 µM
[5] = second compound 0.0316 µM, first compound 3.16 µM
[6] = second compound 0.0316 µM, first compound 10 µM
[7] = second compound 0.1 µM, first compound 0.0316 µM
[8] = second compound 0.1 µM, first compound 0.1 µM
[9] = second compound 0.1 µM, first compound 0.316 µM
[10] = second compound 0.1 µM, first compound 1 µM
[11] = second compound 0.1 µM, first compound 3.16 µM
[12] = second compound 0.1 µM, first compound 10 µM
[13] = second compound 0.316 µM, first compound 0.0316 µM
[14] = second compound 0.316 µM, first compound 0.1 µM
[15] = second compound 0.316 µM, first compound 0.316 µM
[16] = second compound 0.316 µM, first compound 1 µM
[17] = second compound 0.316 µM, first compound 3.16 µM
[18] = second compound 0.316 µM, first compound 10 µM
[19] = second compound 1 µM, first compound 0.0316 µM
[20] = second compound 1 µM, first compound 0.1 µM
[21] = second compound 1 µM, first compound 0.316 µM
[22] = second compound 1 µM, first compound 1 µM
[23] = second compound 1 µM, first compound 3.16 µM
[24] = second compound 1 µM, first compound 10 µM
[25] = second compound 3.16 µM, first compound 0.0316 µM
[26] = second compound 3.16 µM, first compound 0.1 µM
[27] = second compound 3.16 µM, first compound 0.316 µM
[28] = second compound 3.16 µM, first compound 1 µM
[29] = second compound 3.16 µM, first compound 3.16 µM
[30] = second compound 3.16 µM, first compound 10 µM
[31] = second compound 10 µM, first compound 0.0316 µM
[32] = second compound 10 µM, first compound 0.1 µM
[33] = second compound 10 µM, first compound 0.316 µM
[34] = second compound 10 µM, first compound 1 µM
[35] = second compound 10 µM, first compound 3.16 µM
[36] = second compound 10 µM, first compound 10 µM
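Further: spheroids exposed to the agents for one week.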
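Wherever viability, T/C is given: 100% = DMSO vehicle control wells.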

CC1COCCN1c1cc(C2(O)CC3CCC(C2)O3)c2cnn(-c3ccn[nH]3)c2n1 (centres undefined) + COC1C(OC(N)=O)C(O)C(Oc2ccc3c(O)c(NC(=O)c4ccc(O)c(CC=C(C)C)c4)c(=O)oc3c2C)OC1(C)C
IC50 (second compound 0.0316 µM): 337 nM
IC50 (second compound 0.1 µM): 371 nM
IC50 (second compound 0.316 µM): 361 nM
IC50 (second compound 1 µM): 383 nM
IC50 (second compound 3.16 µM): 361 nM
IC50 (second compound 10 µM): 393 nM
viability, T/C [1]: 101%
viability, T/C [2]: 80.6%
viability, T/C [3]: 54.1%
viability, T/C [4]: 23.1%
viability, T/C [5]: 8.69%
viability, T/C [6]: 11.8%
viability, T/C [7]: 107%
viability, T/C [8]: 68.5%
viability, T/C [9]: 66.4%
viability, T/C [10]: 26.7%
viability, T/C [11]: 10.4%
viability, T/C [12]: 10.7%
viability, T/C [13]: 96%
viability, T/C [14]: 89.6%
viability, T/C [15]: 53.3%
viability, T/C [16]: 20.5%
viability, T/C [17]: 9.11%
viability, T/C [18]: 10.8%
viability, T/C [19]: 99.5%
viability, T/C [20]: 93.7%
viability, T/C [21]: 55.1%
viability, T/C [22]: 21.1%
viability, T/C [23]: 8.57%
viability, T/C [24]: 11.2%
viability, T/C [25]: 100%
viability, T/C [26]: 84.9%
viability, T/C [27]: 54.1%
viability, T/C [28]: 23.2%
viability, T/C [29]: 10.7%
viability, T/C [30]: 9.88%
viability, T/C [31]: 93.8%
viability, T/C [32]: 76.1%
viability, T/C [33]: 60.5%
viability, T/C [34]: 17.4%
viability, T/C [35]: 10.4%
viability, T/C [36]: 10.3%

O=C(Nc1ccc(O)c(NS(=O)(=O)c2ccc(F)cc2)c1)c1ccc(-c2ccccc2)cc1 + COC1C(OC(N)=O)C(O)C(Oc2ccc3c(O)c(NC(=O)c4ccc(O)c(CC=C(C)C)c4)c(=O)oc3c2C)OC1(C)C
IC50 (second compound 0.0316 µM): > 10000 nM
IC50 (second compound 0.1 µM): > 10000 nM
IC50 (second compound 0.316 µM): > 10000 nM
IC50 (second compound 1 µM): > 10000 nM
IC50 (second compound 3.16 µM): > 10000 nM
IC50 (second compound 10 µM): > 10000 nM
viability, T/C [1]: 107%
viability, T/C [2]: 91.7%
viability, T/C [3]: 95.1%
viability, T/C [4]: 98.3%
viability, T/C [5]: 99.8%
viability, T/C [6]: 95.6%
viability, T/C [7]: 116%
viability, T/C [8]: 97.1%
viability, T/C [9]: 101%
viability, T/C [10]: 99.3%
viability, T/C [11]: 84%
viability, T/C [12]: 102%
viability, T/C [13]: 104%
viability, T/C [14]: 100%
viability, T/C [15]: 97.5%
viability, T/C [16]: 101%
viability, T/C [17]: 93.3%
viability, T/C [18]: 101%
viability, T/C [19]: 104%
viability, T/C [20]: 97.4%
viability, T/C [21]: 97.6%
viability, T/C [22]: 96.4%
viability, T/C [23]: 101%
viability, T/C [24]: 94.7%
viability, T/C [25]: 93.9%
viability, T/C [26]: 92.2%
viability, T/C [27]: 93.7%
viability, T/C [28]: 90.8%
viability, T/C [29]: 107%
viability, T/C [30]: 94.2%
viability, T/C [31]: 86.2%
viability, T/C [32]: 81.1%
viability, T/C [33]: 97.8%
viability, T/C [34]: 73.7%
viability, T/C [35]: 89.3%
viability, T/C [36]: 96.5%
